Laboratory results reported in ChEMBL document CHEMBL1201862, “PubChem BioAssay data set” (2004).
The source made the active and inactive calls.

Legend:
cells [1] = assay: cells
[2] = non-specific 3'UTR reporter inhibition in Clone20-Shn3RL – cell-based, Renilla luciferase, cherry-picked, counter-screen for Shn3 inhibitor project, dose response (AID 624133); format: functional
[3] = reduction of Shn3 3'UTR-driven luciferase in osteoblasts – cell-based, Clone20 osteoblasts, firefly luciferase, cherry-picked, dose response (AID 624132); format: functional;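 note: firefly luciferase luminescence from reporter carrying the Shn3 3'UTR in osteoblasts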
[4] = Shn3 3'UTR reporter signal decrease – cell-based, Clone20 osteoblasts, firefly luciferase, cherry-pick, set 2, Schnurri-3 inhibitor project, dose response (AID 720490); format: functional;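 note: actives lower the luminescence signal as inhibitors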
[5] = optical artefact potency, substrate without enzyme – biochemical, fluorescence intensity, triplicate, artefact control for kallikrein-7 zymogen activator project, dose response (AID 720493)
Kallikrein-7 = Kallikrein-7 (Homo sapiens, UniProt P49862); assay: Fluorescence Intensity-based biochemical primary high throughput dose response assay to identify activators of kallikrein-7 (K7) zymogen.
[6] = viability loss in HepG2 hepatoma cells – cell-based, ATP luminescence, cherry-pick, activator set 2, cytotoxicity control, dose response (AID 1053143); format: functional
[7] = molecular target: Disintegrin and metalloproteinase domain-containing protein 17 (Homo sapiens, UniProt P78536); assay: exosite inhibitors of ADAM17, dose response, biochemical (AID 743260)
[8] = inhibition of ADAM10 peptide cleavage – biochemical, FRET peptide substrate, recombinant human ADAM10, selectivity assay for ADAM17 exosite inhibitor project, dose response (AID 743259);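 note: ADAM10 enzyme cleaving a FRET peptide substrate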
[9] = molecular target: NAD-dependent protein deacylase sirtuin-5, mitochondrial (Homo sapiens, UniProt Q9NXA8); assay: sirtuin-5 deacylation blockers, concentration series – biochemical, fluorescence imaging, cherry-pick, set 5, dose response (AID 720591);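 note: desuccinylation of succinyl peptide AMC substrate read as fluorescence after trypsin release; potency of inhibitors that lower fluorescence and may act on trypsin instead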
[10] = PAX8-dependent cell viability loss – plate reader, dry powder, dose response (AID 743049); format: functional, cell-based
[11] = OVCAR8 cell viability loss – plate reader, dry powder samples, PAX8 project, dose response (AID 743197); format: functional, cell-based; details: OVCAR-8
[12] = COV434 cell viability loss – plate reader, dry powder, SA7, cytotoxicity control for PAX8 inhibitor project, dose response (AID 743145); format: functional, cell-based
[13] = COV362 cell viability loss – plate reader, dry powder, SA12, cytotoxicity control for PAX8 inhibitor project, dose response (AID 743144); format: functional, cell-based
[14] = PAX5 cellular inhibition readout – cell-based, plate reader, dry powder samples, selectivity assay for PAX8 inhibitor project, dose response (AID 743047); format: functional;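 note: HEK293 cells carrying a Pax5 driven CD19 promoter luciferase reporter; potency of inhibitors that lower reporter luminescence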
Paired box protein Pax-8 = Paired box protein Pax-8 (Homo sapiens, UniProt Q06710); assay: PAX8 transcriptional activity inhibition in RMG-I – RMG-I cells, luciferase, cherry-pick, dose response (AID 687027); format: functional, cell-based;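 note: luciferase reporter driven by Pax8 target thyroperoxidase promoter measured by SteadyGlo luminescence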
[15] = OVCAR4 cell viability loss – plate reader, dry powder, SA11, cytotoxicity control for PAX8 inhibitor project, dose response (AID 743150); format: functional, cell-based; details: OVCAR-4
[16] = OV-90 cell viability loss – plate reader, dry powder, SA8, PAX8 inhibitor project, dose response (AID 743149); format: functional, cell-based
[17] = IGROV1 cell killing – plate reader, dry powder samples, PAX8 inhibitor project, dose response (AID 743043); format: functional, cell-based; details: IGROV-1
[18] = OVCAR-3 cell viability loss – plate reader, dry powder samples, PAX8 inhibitor project, dose response (AID 743044); format: functional, cell-based
HeLa = assay: viability loss in HeLa cells – cell-based, ATP luminescence, cherry-pick samples, cytotoxicity control, dose response (AID 687004); format: functional; details: Homo sapiens
Vasopressin V2 receptor = Vasopressin V2 receptor (Homo sapiens, UniProt P30518); assay: Late-stage results from the probe development effort to identify antagonists of arginine vasopressin receptor 1a (AVPR1a): fluorescence-based cell-based dose response AVPR2 inhibition counterscreen assay.; format: functional
[19] = Late-stage results from the probe development effort to identify antagonists of arginine vasopressin receptor 1a (AVPR1a): fluorescence-based cell-based dose response OXTR inhibition counterscreen assay.; format: functional
Vasopressin V1b receptor = Vasopressin V1b receptor (Homo sapiens, UniProt P47901); assay: Late-stage results from the probe development effort to identify antagonists of arginine vasopressin receptor 1a (AVPR1a): fluorescence-based cell-based dose response AVPR1b inhibition counterscreen assay.; format: functional
[20] = Late-stage results from the probe development effort to identify antagonists of arginine vasopressin receptor 1a (AVPR1a): fluorescence-based cell-based dose response AVPR1a inhibition assay.; format: functional
[21] = viability reduction in hepatoma cells – cell-based, ATP luminescence, dry powder, Set4, cytotoxicity control, dose response (AID 743143); format: functional; details: HepG2
[22] = molecular target: Delta-type opioid receptor (Homo sapiens, UniProt P41143); assay: Late-stage results from the probe development effort to identify antagonists of OPRK1: fluorescence-based cell-based dose response OPRD1 counterscreen.; format: functional
Mu-type opioid receptor = Mu-type opioid receptor (Homo sapiens, UniProt P35372); assay: Late-stage results from the probe development effort to identify antagonists of OPRK1: luminescence-based cell-based dose response OPRM1 counterscreen.; format: functional
[23] = A Cell-Based Confirmatory Screen for Compounds that Inhibit VEEV, TC-83 (8).; format: functional
[24] = A Cell-Based Confirmatory Screen for Compounds that Inhibit VEEV, TC-83 (6).; format: functional
[25] = HeLa cell viability loss – plate reader, dry powder, cytotoxicity control, dose response (AID 651946); format: functional, cell-based
Streptococcus = assay: GAS UMAA2166 growth inhibition – luminescence, BacTiterGlo, counter-screen for streptokinase expression inhibitor project, dose response (AID 1915); format: functional, organism-based;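 note: potency for reduction of bacterial viability or growth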
Streptokinase A = molecular target: T1, Streptokinase A (Streptococcus pyogenes serotype M1, UniProt P10520); assay: viability-normalized secreted streptokinase activity reduction – plasminogen activation absorbance, OD405, dose response (AID 1914); format: functional, Streptococcus pyogenes M1 GAS;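 note: secreted streptokinase activity via plasminogen activation per viability signal from cell pellet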
T1 sequence (P10520 whole entry): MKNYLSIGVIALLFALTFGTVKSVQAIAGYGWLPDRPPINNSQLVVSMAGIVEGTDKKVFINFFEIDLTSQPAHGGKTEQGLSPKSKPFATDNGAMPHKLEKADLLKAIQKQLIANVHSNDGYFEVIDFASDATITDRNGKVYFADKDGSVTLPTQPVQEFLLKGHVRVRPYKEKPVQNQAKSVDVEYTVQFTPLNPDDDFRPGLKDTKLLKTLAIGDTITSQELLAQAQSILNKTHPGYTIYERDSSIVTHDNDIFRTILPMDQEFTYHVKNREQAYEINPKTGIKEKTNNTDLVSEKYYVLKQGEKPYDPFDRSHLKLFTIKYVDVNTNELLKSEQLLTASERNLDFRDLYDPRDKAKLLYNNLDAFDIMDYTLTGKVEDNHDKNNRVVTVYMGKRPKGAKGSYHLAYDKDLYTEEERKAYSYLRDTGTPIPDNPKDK

[26] = test system: Streptococcus sp. 'group A'; assay: Streptococcus pyogenes SK(-)GAS viability under kanamycin – luminescence, BacTiterGlo, confirmation, counter-screen for streptokinase expression inhibitor project, dose response (AID 1900); format: functional, organism-based
[27] = general mammalian cell viability loss – activator set, cherry-pick, cytotoxicity control for miR-122 modulator project, dose response (AID 720690); format: functional, cell-based;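 note: HEK293T human cells scored for general mammalian cytotoxicity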
[28] = DRD fibroblast viability loss – cell-based, non-viral oncogenic, luminescence, dose response (AID 1934); format: functional; details: Homo sapiens
cells [29] = format: functional, cell-based
[30] = Luminescence Cell-Based Dose Response HTS to Identify Inhibitors of 5'UTR Stem-Loop Driven Prion Protein mRNA Translation in H4 Neuroglioblastoma Cells. [Related pubchem assays: 1827 (Project Summary), 1813 (Primary HTS)]; format: functional
[31] = general mammalian cell viability loss – inhibitor set, cherry-pick, set 2, cytotoxicity control for miR-122 modulator project, dose response (AID 720697); format: functional, cell-based
BJ [32] = assay: BJ-TERT fibroblast viability loss – cell-based, RAS-independent, luminescence, dose response (AID 1933); format: functional; details: Homo sapiens
[33] = luciferase reporter signal reduction – luminescence, H4-C neuroglioblastoma cells, dose response (AID 2458); format: functional, cell-based;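 note: H4 neuroglioblastoma cells stably carrying a luciferase reporter gene fusion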
HEK293 = assay: EBV LMP1 TES2 canonical NF-kB signalling blockers – cell-based, HEK293, luciferase, cherry-pick, dose response (AID 588343); format: functional; details: Homo sapiens
[34] = luciferase reporter signal suppression in cells – H4 neuroglioma cells, luminescence, dose response (AID 1990); format: functional, cell-based
[35] = activation of miR-122 Renilla sensor silencing – cell-based, Huh7 psiCHECK-miR122, Renilla luciferase, cherry-picked, dose response (AID 651956); format: functional;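 note: huh7 hepatoma cells stably carrying a psiCHECK-2 miR-122 sensor plasmid; renilla luciferase signal reporting endogenous miR-122 activity after 48 h compound exposure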
[36] = molecular target: Heat shock protein HSP 90-alpha (Homo sapiens, UniProt P07900); format: functional, organism-based
[37] = alpha-synuclein stem-loop luciferase translation blockers – H4 neuroglioma cells, luminescence, confirmation (AID 1988); format: functional, cell-based
[38] = alpha-synuclein stem-loop translation blockers – luminescence, H4 neuroglioblastoma cells, dose confirmation, confirmation (AID 2454); format: functional, cell-based;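 note: H4 neuroglioblastoma cells carrying an alpha-synuclein 5'UTR luciferase reporter; potency for inhibition of the luciferase signal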
INS1 = assay: INS-1E survival protection against cytokine death – cell-based, luminescence, retest, dose response (AID 449756); format: functional; details: Rattus norvegicus;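 note: cell death triggered by IL-1 beta plus TNF-alpha plus IFN-gamma mixture; protective hits raise ATP signal compared with cytokine alone wells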
BJ [39] = assay: BJ-TERT-LT-ST fibroblast viability loss – cell-based, RAS-independent, luminescence, dose response (AID 1935); format: functional; details: Homo sapiens;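 note: BJ fibroblasts immortalized with TERT plus LT and ST oncogenes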
BJ [40] = assay: growth inhibition of engineered Ras-driven BJ cells – cell-based, alamar blue fluorescence, cherrypicked samples, dose response (AID 2631); format: functional; details: Homo sapiens;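 note: confirmatory dose-response assay in RAS-dependent BJ fibroblasts engineered with TERT, LT and ST, with cytotoxicity read by fluorescence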
BJ [41] = assay: cells; format: functional, cell-based; details: Homo sapiens
[42] = molecular target: 1-phosphatidylinositol 4,5-bisphosphate phosphodiesterase beta-3 (Homo sapiens, UniProt Q01970); assay: Fluorescence-based biochemical high throughput dose response assay to identify inhibitors of phospholipase C isozymes (PLC-B3).
[43] = molecular target: 1-phosphatidylinositol 4,5-bisphosphate phosphodiesterase gamma-1 (Homo sapiens, UniProt P19174); assay: Counterscreen for inhibitors of phospholipase C isozymes (PLC-B3): Fluorescence-based biochemical high throughput dose response assay to identify inhibitors of phospholipase C isozymes (PLC-gamma1).
1-phosphatidylinositol 4,5-bisphosphate phosphodiesterase gamma-1, sequence (P19174 whole entry): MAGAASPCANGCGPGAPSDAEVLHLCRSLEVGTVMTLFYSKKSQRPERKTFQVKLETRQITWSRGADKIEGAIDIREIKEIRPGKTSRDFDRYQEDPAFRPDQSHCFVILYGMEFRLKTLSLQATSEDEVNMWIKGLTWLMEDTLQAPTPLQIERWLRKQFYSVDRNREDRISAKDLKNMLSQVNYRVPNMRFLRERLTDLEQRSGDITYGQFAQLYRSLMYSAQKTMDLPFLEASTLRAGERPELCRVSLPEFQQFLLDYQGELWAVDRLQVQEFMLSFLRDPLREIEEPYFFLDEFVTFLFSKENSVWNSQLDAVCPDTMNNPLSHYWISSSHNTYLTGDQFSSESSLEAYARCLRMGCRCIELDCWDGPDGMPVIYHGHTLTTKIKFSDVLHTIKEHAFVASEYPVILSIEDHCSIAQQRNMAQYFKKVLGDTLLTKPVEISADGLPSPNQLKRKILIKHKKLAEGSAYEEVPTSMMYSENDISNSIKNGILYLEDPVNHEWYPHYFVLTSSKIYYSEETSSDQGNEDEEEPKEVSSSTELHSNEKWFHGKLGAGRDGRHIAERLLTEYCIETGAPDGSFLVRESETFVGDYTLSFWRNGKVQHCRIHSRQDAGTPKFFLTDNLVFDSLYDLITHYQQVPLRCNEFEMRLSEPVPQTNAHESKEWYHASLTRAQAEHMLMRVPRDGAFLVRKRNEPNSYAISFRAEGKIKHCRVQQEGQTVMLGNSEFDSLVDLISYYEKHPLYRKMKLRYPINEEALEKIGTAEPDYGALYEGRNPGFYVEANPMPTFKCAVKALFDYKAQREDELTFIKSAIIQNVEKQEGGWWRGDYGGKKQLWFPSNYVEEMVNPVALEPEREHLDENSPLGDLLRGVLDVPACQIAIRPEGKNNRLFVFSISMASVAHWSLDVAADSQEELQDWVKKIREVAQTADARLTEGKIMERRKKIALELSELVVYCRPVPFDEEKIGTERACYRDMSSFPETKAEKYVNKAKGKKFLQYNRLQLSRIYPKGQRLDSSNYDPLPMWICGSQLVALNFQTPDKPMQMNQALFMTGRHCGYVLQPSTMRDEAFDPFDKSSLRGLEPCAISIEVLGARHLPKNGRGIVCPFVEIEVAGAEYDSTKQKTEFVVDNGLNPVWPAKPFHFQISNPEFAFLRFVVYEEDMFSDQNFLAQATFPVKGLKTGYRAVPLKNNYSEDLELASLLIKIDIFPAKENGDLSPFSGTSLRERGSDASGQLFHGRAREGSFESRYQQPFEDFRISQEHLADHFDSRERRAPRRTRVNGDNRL

Delta-type opioid receptor, sequence (P41143 whole entry): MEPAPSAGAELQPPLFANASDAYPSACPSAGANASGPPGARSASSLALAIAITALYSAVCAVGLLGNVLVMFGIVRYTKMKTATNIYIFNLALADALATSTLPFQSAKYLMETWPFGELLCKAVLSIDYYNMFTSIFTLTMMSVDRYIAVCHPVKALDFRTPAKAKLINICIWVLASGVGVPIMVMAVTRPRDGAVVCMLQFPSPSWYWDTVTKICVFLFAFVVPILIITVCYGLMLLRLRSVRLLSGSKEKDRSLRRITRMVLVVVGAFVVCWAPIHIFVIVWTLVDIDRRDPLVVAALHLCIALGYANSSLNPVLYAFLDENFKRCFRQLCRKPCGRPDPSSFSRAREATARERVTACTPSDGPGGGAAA
Mu-type opioid receptor, sequence (P35372 whole entry): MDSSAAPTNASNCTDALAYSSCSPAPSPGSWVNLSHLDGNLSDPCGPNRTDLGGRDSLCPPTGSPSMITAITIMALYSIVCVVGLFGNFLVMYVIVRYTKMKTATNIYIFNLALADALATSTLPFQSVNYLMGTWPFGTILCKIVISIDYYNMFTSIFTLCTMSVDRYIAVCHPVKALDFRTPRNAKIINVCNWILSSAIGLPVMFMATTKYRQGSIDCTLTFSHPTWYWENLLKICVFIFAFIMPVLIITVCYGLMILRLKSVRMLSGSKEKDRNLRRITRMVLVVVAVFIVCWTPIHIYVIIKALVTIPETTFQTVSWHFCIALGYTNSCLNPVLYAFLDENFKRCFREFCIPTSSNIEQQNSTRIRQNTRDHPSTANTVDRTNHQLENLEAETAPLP
Paired box protein Pax-8, sequence (Q06710 whole entry): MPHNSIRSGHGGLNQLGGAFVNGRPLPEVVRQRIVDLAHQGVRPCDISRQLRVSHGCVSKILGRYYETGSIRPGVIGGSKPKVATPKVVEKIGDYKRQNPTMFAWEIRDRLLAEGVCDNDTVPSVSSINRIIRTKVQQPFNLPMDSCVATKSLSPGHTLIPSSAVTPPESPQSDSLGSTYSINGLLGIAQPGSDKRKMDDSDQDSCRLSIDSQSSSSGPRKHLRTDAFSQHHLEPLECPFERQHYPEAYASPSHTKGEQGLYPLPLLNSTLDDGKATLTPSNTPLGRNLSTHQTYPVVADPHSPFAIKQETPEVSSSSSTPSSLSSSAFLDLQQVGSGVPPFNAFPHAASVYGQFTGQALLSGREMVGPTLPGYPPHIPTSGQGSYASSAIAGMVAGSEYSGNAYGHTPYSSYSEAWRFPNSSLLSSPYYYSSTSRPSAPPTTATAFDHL
NAD-dependent protein deacylase sirtuin-5, mitochondrial, sequence (Q9NXA8 whole entry): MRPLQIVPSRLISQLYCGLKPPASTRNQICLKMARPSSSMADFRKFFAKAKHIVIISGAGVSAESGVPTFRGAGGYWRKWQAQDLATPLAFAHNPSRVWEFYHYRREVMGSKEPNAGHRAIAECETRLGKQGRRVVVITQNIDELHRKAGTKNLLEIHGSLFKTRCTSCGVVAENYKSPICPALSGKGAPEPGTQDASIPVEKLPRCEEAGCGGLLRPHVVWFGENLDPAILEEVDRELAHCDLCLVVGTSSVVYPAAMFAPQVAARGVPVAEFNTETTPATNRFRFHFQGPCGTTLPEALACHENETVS
1-phosphatidylinositol 4,5-bisphosphate phosphodiesterase beta-3, sequence (Q01970 whole entry): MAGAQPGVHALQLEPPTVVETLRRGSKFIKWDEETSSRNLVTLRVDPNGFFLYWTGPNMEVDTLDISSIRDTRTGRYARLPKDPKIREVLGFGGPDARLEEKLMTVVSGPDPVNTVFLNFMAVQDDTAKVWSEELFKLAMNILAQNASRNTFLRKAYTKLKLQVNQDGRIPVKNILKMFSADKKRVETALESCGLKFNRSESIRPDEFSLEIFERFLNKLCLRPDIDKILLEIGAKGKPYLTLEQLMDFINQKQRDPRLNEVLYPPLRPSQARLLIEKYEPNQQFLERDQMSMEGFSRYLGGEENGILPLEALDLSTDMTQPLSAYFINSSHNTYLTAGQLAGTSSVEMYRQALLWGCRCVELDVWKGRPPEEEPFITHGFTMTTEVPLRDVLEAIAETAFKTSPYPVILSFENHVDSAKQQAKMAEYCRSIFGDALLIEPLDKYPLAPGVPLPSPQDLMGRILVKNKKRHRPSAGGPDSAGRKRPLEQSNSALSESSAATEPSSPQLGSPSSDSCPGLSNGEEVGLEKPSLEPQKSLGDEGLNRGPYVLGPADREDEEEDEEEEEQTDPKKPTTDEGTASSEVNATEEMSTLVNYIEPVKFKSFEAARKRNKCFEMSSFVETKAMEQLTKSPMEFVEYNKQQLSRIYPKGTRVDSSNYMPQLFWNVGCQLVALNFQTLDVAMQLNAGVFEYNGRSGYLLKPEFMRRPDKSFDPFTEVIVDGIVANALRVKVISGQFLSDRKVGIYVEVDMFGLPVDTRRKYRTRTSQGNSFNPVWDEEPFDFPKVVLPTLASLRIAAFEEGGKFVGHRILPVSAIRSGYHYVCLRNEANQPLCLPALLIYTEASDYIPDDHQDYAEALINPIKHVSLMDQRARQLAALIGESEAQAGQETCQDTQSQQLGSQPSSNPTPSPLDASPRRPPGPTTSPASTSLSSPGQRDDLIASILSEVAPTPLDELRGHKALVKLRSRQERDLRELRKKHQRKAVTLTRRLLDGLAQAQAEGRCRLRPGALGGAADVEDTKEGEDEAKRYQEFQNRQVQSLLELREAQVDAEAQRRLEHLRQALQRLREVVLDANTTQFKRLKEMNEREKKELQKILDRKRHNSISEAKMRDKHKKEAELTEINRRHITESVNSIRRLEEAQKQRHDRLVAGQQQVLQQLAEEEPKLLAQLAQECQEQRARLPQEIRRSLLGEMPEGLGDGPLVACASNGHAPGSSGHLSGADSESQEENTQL
Vasopressin V2 receptor, sequence (P30518 whole entry): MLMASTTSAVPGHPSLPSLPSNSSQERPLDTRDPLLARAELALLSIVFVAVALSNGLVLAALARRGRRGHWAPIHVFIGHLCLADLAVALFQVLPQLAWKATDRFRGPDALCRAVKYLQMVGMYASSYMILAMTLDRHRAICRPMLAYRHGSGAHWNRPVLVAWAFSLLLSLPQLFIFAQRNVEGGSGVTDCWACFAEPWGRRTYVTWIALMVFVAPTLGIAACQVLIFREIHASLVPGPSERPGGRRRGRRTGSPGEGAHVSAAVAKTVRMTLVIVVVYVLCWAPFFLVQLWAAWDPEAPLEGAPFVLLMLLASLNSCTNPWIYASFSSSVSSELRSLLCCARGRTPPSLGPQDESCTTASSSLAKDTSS
Vasopressin V1b receptor, sequence (P47901 whole entry): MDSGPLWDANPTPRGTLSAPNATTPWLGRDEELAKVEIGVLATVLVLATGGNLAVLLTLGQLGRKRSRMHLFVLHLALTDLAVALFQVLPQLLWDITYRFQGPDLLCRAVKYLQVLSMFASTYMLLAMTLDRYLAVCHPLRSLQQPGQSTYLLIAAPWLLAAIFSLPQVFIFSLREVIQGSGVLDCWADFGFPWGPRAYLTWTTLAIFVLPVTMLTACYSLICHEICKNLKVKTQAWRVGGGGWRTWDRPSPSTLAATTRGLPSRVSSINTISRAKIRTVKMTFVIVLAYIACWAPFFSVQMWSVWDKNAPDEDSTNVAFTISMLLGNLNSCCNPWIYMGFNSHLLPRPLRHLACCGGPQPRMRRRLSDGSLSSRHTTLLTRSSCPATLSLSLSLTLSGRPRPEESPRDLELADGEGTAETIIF

Compound: CCCCN1C=C(C(=O)OC)C(c2ccccc2Cl)C(C(=O)OC)=C1
- AC50 (cells [1]): 2.12 µM (active)

Compound: Cc1onc(-c2ccccc2Cl)c1C(=O)N(C)C1CCCCC1
- AC50 [2]: 11.2 µM (active)
- AC50 [3]: 2.74 µM (active)
- AC50 [4]: 3.59 µM (active)

Compound: CCC1CCCCN1Cc1c(O)ccc2c(=O)c(-c3ccccc3)coc12 (stereo not drawn)
- EC50 [5]: > 7.72 µM (active)
- EC50 (Kallikrein-7): > 69.5 µM (inactive)

Compound: O=C(/C=C/c1ccco1)Nc1cccnc1Cl
- AC50 [6]: > 52 µM (inactive)

Compound: COc1ccccc1CNS(=O)(=O)c1cc(-c2cc(C)no2)ccc1C(C)C
- IC50 [7]: > 69.5 µM (inactive)
- IC50 [8]: > 69.5 µM (inactive)

Compound: CC(=O)CSc1nnc(-c2ccco2)n1-c1ccccc1
- AC50 [9]: > 30 µM (inactive)

Compound: CN(C[C@H]1N[C@@H](CO)[C@@H]1c1ccc(C2=CCCC2)cc1)C(=O)c1ccncc1
- AC50 [10]: 16.3 µM (active)
- AC50 [11]: 17.5 µM (active)
- AC50 [12]: 19.3 µM (active)
- AC50 [13]: 21.1 µM (active)
- AC50 [14]: > 32 µM (inactive)
- AC50 (Paired box protein Pax-8): 6.17 µM (active)
- AC50 [15]: 16.2 µM (active)
- AC50 [16]: 47.5 µM (active)
- AC50 [17]: 16.2 µM (active)
- AC50 [18]: 10.9 µM (active)

Compound: COc1cccc(S(=O)(=O)Nc2ccc3c(c2)OC[C@H](C)NC[C@@H](C)[C@H](OC)CN(C)C3=O)c1
- AC50 (HeLa): > 52 µM (inactive)

Compound: COc1ccc(N(CC2CC2)C(=O)N2CCN(c3ncc(Cl)cc3Cl)CC2)cc1
- IC50 (Vasopressin V2 receptor): 2.78 µM (active)
- IC50 [19]: 0.1 µM (active)
- IC50 (Vasopressin V1b receptor): 3.1 µM (active)
- IC50 [20]: 0.0166 µM (active)

Compound: O=C(CNC(=O)c1ccc(Cl)c(Cl)c1)N[C@@H]1CCCc2ccccc21
- AC50 [21]: > 52 µM (inactive)

Compound: COC(=O)c1cc(Br)cnc1N1CCC(NC2CCCCC2OC)CC1 (stereo not drawn)
- IC50 [22]: > 50 µM (inactive)
- IC50 (Mu-type opioid receptor): 12 µM (inactive)

Compound: COc1cccc(-n2c(CN3CCNCC3)nc3ccc([N+](=O)[O-])cc3c2=O)c1
- IC50 [23]: 10.4 µM (active)
- IC50 [24]: 10.4 µM (active)

Compound: c1ccc(-c2nnc(SC(c3ccccc3)c3ccccc3)o2)cc1
- AC50 [25]: > 52 µM (inactive)

Compound: Cc1sc2ncnc(N/N=C/c3ccccc3O)c2c1C
- EC50 (Streptococcus): 6.53 µM (active)
- EC50 (Streptokinase A): 8.21 µM (active)
- EC50 [26]: 1.97 µM (active)
- AC50 [27]: 3.28 µM (active)
- EC50 [28]: 3.5 µM (active)
- EC50 (cells [29]): 1.22 µM (active)
- EC50 [30]: 20.5 µM (active)
- AC50 [31]: 1.19 µM (active)
- EC50 (BJ [32]): 5.5 µM (inconclusive)
- EC50 [33]: 1.17 µM (active)
- AC50 (HEK293): 9.16 µM (active)
- EC50 [34]: 7.52 µM (active)
- AC50 [35]: 8.43 µM (active)
- AC50 [36]: 2.1 µM (active)
- EC50 [37]: < 0.1 µM (active)
- EC50 [38]: 0.993 µM (active)
- AC50 (INS1): 0.642 µM (active)
- EC50 (BJ [39]): 5.79 µM (inconclusive)
- EC50 (BJ [40]): 4.53 µM (active)
- EC50 (BJ [41]): 4.2 µM (active)

Compound: O=C(N/N=C/c1ccc(OC(=O)c2ccccc2)cc1)c1cccc(O)c1
- IC50 [42]: > 122 µM (inactive)
- IC50 [43]: > 122 µM (inactive)
